Data taken from patent US20170143009A1, “ANIMAL FEED AND AQUAFEED” (DUPONT NUTRITION BIOSCIENCES APS, priority 2014, published 2017).

Legend:
[1] = pure form; water and lower alcohols; cited from earlier work
[2] = tested on: Pacific white shrimp; assay: 8-week feeding trial, growth performance and feed utilisation; assay type: in vivo, Litopennaeus vannamei; conditions: 8 weeks; for Final individual body weight gain: 5 replicates
Procedure: The feeding experiment (8 weeks) on Pacific white shrimp was conducted at the shrimp farm facilities of Prince of Songkhla University, Pattani Campus in Thailand. The shrimp rearing unit was made up of fiberglass aquarium of 235 L. The parameters to assess the water quality i.e. salinity, dissolved oxygen (DO), temperature and pH were measured daily using standard protocols. There was a weekly monitoring of NH3 and NO2. Siphoning of left-over feed and faeces and exchange of 10% of water was done daily.
Pacific white leg shrimp (Litopennaeus vannamei) were obtained from a standard farm in Pattani province. Shrimp were acclimatized in a concrete pond for 7 days prior to the start of the experiment. It was ensured that the juveniles were not infested with bacteria, parasites and viruses. […] They were sorted and allotted randomly for a particular feed group. 30 shrimps were introduced into each of the 235 L fibreglass aquarium (5 aquariums per feed group). It was confirmed that there was no significant difference in the initial weights of the groups. They were grown in the system for 8 weeks.
Experimental shrimp feeds were used.
In the present study, positive control was based on 9% fish meal whereas negative control with or without betaine products) was based on 4% fish meal as indicated in the feed formulation in table 2.
The experimental feeds were hand fed everyday; four times a day. Feed consumption as well as amount of unconsumed feed were monitored (weighed) daily.
Daily feed was based on feed guide x number of surviving animals, and was predetermined one week in advance, but was adjusted on a daily basis if significant amount of feed remained non eaten or if all feed was consumed, in order to avoid underfeeding or overfeeding. The animals were weighed every 2 weeks—all animals in each of the aquaria were weighed.
The bulk weights of shrimp were recorded from each experimental unit at the start of the feeding period. Weight measurement was examined every two weeks by sampling 10% of white shrimp in each net cage (at week 2, 4, 6, and 8). At the end of the study (8 weeks), all shrimp in each net cage were weighed. The number of survivors was also checked. The determination of weight gain was based on the total biomass in each net cage considering the number of survivors.
Survival (%)=100 (Final shrimp number/Initial shrimp number)
Weight gain, WG (%)=[[(Mean final bodyweight)−(Mean initial body weight)]/Mean initial body weight]×100.
Rate of feed intake (%/BW/day)=Feed intake (g)×100/[((mean final BW+mean initial BW)/2)×((number of final shrimp+number of initial shrimp)/2)×time (days)].
Feed conversion ratio, FCR=Dry feed intake (g)/[Final biomass (g)−Initial biomass (g)+Biomass of the dead shrimp (g)].

[3] = NC feed (4% fish meal) + 0.5% uncoated betaine
[4] = NC feed (4% fish meal) + 1% uncoated betaine

For `C[N+](C)(C)CC(=O)[O-]` [Uncoated Betafin, trimethylglycine], the Solubility [1] is listed as “readily soluble in water and lower alcohols”, the “Final individual body weight gain” value ([2]; NC feed (4% fish meal) + 0.5% uncoated betaine (5 kg/tonne of feed)) is listed as 5.58 ± 0.29ab g/shrimp and the “FCR (feed conversion ratio)” value [2, 3] is listed as 1.83 ± 0.09a. The Feed intake [2, 3] was 7.60 ± 0.51b, the Survival [2, 3] was 95.8 ± 4.2abcd % and the “Final individual body weight gain” value ([2]; NC feed (4% fish meal) + 1% uncoated betaine (10 kg/tonne of feed)) was 6.06 ± 0.82a g/shrimp. The “FCR (feed conversion ratio)” value [2, 4] was 1.85 ± 0.21a, the Feed intake [2, 4] was 8.46 ± 0.48a and the Survival [2, 4] was 95.0 ± 3.3abcd %. The Feed intake ([2]; NC feed (4% fish meal) + 1% uncoated betaine, listed as betaine) was “significantly higher than positive control”.
